Like-named read-outs stand apart in the source and are kept apart here.
Key:
HeLa = assay: Proliferation assay (HeLa cell line); settings: Homo sapiens, 96 h, read-out: Biological Assay 2: Proliferation assay (HeLa cell line) median IC50;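 also: crystal violet staining of cell number, scaled between a plate stained before dosing (0%) and cells left untreated (100%), compounds tested at 0.001-10 µM, IC50 via 4-parameter fit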
[1] = system: HeLa human cervical tumor cells; assay: Proliferation assay (HeLa+Paclitaxel); settings: read-out: Biological Assay 3: HeLa + Paclitaxel IC50, 3 nM paclitaxel, crystal violet;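 also: compounds at 0.001-10 µM added 4 h after paclitaxel, 92 h exposure, absorbance normalized to zero-point plate (0%) and untreated cells (100%), IC50 from 4-parameter fit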
Bub1 = Bub1 (Homo sapiens, UniProt O43683); assay: Formation-Assay: phosphorylation status of histone 2A by inhibition of kinase activity of Bub1; format: cell-based; settings: Biological Assay 4.1: H2A Formation IC50, co-treatment with Nocodazole 1 μg/ml, 16 h
Summary of the method: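 Cells co-treated 16 h with Nocodazole (1 μg/ml) and compound (3 nM–10 μM), then fixed and immunostained for phospho-H2A, read by infrared imaging (800 nm) normalised to cell stain (700 nm). Nocodazole-only set as 100%, untreated cells as 0%.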

[2] = biological target: T1, catalytic domain of human Bub1 (amino acids 704-1085) (Homo sapiens, UniProt O43683); assay: Bub1 kinase assay (TR-FRET); format: biochemical
T1 construct: catalytic domain of human Bub1 (amino acids 704-1085); His6 (N); made in house; host or cells: Hi5 insect cells
Summary of the method: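 TR-FRET read-out (Eu-anti-mouse IgG/anti-phosphoserine antibody to streptavidin-XL665 on biotinylated peptide) after EDTA stop and 1 h complex formation at 22° C. Kinase reaction ran 60 min at 22° C with 1:3.4 serial dilutions from 2 mM DMSO stocks. IC50 from 4-parameter logistic fit of normalized inhibition.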

[3] = 10 μM ATP, read-out: Biological Assay 1: Bub1 kinase assay median IC50
[4] = Biological Assay 1: Bub1 kinase assay median IC50, 10 μM ATP

Bub1, sequence (O43683 whole entry): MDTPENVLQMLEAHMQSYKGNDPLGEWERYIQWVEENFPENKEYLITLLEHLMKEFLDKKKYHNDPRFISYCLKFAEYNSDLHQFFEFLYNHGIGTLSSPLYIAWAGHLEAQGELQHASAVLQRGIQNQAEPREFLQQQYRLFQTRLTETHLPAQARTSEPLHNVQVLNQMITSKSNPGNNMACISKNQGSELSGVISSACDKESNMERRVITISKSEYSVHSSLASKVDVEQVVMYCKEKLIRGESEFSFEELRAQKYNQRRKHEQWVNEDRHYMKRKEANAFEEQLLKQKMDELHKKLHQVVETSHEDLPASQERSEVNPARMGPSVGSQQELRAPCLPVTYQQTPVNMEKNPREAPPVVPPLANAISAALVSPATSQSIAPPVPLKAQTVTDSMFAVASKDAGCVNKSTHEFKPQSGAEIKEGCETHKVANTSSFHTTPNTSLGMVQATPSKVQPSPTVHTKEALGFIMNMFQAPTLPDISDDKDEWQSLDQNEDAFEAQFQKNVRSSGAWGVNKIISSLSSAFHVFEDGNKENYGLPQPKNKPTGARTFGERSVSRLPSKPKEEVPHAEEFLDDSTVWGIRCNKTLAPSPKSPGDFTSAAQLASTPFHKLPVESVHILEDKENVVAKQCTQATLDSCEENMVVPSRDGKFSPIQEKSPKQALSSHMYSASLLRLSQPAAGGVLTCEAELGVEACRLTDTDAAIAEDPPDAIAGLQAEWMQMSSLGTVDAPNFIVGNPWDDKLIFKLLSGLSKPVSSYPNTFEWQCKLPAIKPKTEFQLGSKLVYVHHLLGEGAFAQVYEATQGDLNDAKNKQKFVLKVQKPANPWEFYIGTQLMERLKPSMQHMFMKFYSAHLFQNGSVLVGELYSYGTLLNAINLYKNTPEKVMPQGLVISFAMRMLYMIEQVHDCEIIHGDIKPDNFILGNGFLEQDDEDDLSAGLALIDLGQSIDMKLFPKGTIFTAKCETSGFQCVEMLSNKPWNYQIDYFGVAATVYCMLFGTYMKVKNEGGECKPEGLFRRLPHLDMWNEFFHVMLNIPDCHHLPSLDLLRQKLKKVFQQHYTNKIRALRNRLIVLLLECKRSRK
T1 sequence (O43683 704-1085): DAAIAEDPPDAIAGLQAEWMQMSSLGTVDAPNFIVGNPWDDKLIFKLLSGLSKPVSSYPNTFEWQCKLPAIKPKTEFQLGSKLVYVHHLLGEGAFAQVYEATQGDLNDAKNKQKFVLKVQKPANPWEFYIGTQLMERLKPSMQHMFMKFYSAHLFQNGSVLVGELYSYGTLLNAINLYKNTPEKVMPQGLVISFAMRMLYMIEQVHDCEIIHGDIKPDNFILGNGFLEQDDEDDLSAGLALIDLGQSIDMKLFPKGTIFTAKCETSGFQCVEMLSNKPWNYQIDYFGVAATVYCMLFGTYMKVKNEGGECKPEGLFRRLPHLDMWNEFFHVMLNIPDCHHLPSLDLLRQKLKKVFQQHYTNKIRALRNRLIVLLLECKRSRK

Compound | IC50 (HeLa) [nM] | IC50 [1] [nM] | IC50 (Bub1) [nM] | IC50 [2, 3] [nM] | IC50 [2, 4] [nM]
CCOc1cc(F)c(Cn2nc(-c3nc4c(c(Nc5ccncn5)n3)CCC4)c3ccccc32)c(F)c1 [Example 2-14-6, 2-[1-(4-ethoxy-2,6-difluorobenzyl)-1H-indazol-3-yl]-N-(pyrimidin-4-yl)-6,7-dihydro-5H-cyclopenta[d]pyrimidin-4-amine] | 3600 | 270 | 2.7 | 37 | –
CCOc1cc(F)c(Cn2nc(-c3nc4c(c(Nc5ccnc(C)c5)n3)CN(CC)CC4)c3ccccc32)c(F)c1 [Example 2-15-2, 2-[1-(4-ethoxy-2,6-difluorobenzyl)-1H-indazol-3-yl]-6-ethyl-N-(2-methylpyridin-4-yl)-5,6,7,8-tetrahydropyrido[4,3-d]pyrimidin-4-amine] | > 10000 | 45 | 39 | – | 47
CCOc1cc(F)c(Cn2nc(-c3nc4c(c(Nc5ccncc5)n3)CSC4)c3ccccc32)c(F)c1 [Example 2-19-1, 2-[1-(4-ethoxy-2,6-difluorobenzyl)-1H-indazol-3-yl]-N-(pyridin-4-yl)-5,7-dihydrothieno[3,4-d]pyrimidin-4-amine] | 1200 | 350 | 350 | 14 | –
CCOc1cc(F)c(Cn2nc(-c3nc4c(c(Nc5ccnc(OC)c5)n3)CCC4)c3ccccc32)c(F)c1 [Example 2-19-7, 2-[1-(4-ethoxy-2,6-difluorobenzyl)-1H-indazol-3-yl]-N-(2-methoxypyridin-4-yl)-6,7-dihydro-5H-cyclopenta[d]pyrimidin-4-amine] | > 10000 | 540 | 21 | 57 | –
CCOc1cc(F)c(Cn2nc(-c3nc(CN4CCOCC4)cc(Nc4ccnc(C)c4)n3)c3ccccc32)c(F)c1 [Example 2-19-9, 2-[1-(4-ethoxy-2,6-difluorobenzyl)-1H-indazol-3-yl]-N-(2-methylpyridin-4-yl)-6-(morpholin-4-ylmethyl)pyrimidin-4-amine] | 1300 | 75 | 18 | 23 | –
CCOc1cc(F)c(Cn2nc(-c3nc(CN4CCOCC4)cc(Nc4ccnc(NC(=O)C5CC5)c4)n3)c3ccccc32)c(F)c1 [Example 2-19-11, N-[4-({2-[1-(4-ethoxy-2,6-difluorobenzyl)-1H-indazol-3-yl]-6-(morpholin-4-ylmethyl)pyrimidin-4-yl}amino)pyridin-2-yl]cyclopropanecarboxamide] | 1800 | 130 | 180 | 9.1 | –
CCOc1cc(F)c(Cn2nc(-c3nc(CN4CCOCC4)cc(Nc4ccncc4F)n3)c3ccccc32)c(F)c1 [Example 2-19-12, 2-[1-(4-ethoxy-2,6-difluorobenzyl)-1H-indazol-3-yl]-N-(3-fluoropyridin-4-yl)-6-(morpholin-4-ylmethyl)pyrimidin-4-amine] | 4000 | 250 | 63 | 11 | –
CCOc1cc(F)c(Cn2nc(-c3nc(CN4CCOCC4)cc(Nc4ccncc4OC)n3)c3ccccc32)c(F)c1 [Example 2-19-13, 2-[1-(4-ethoxy-2,6-difluorobenzyl)-1H-indazol-3-yl]-N-(3-methoxypyridin-4-yl)-6-(morpholin-4-ylmethyl)pyrimidin-4-amine] | 3400 | 130 | 3800 | 7.7 | –
CCOc1cc(F)c(Cn2nc(-c3nc4c(c(Nc5ccncc5OC)n3)COC4)c3ccccc32)c(F)c1 [Example 2-19-17, 2-[1-(4-ethoxy-2,6-difluorobenzyl)-1H-indazol-3-yl]-N-(3-methoxypyridin-4-yl)-5,7-dihydrofuro[3,4-d]pyrimidin-4-amine] | 1500 | 140 | 7100 | 18 | –
CCOc1cc(F)c(Cn2nc(-c3nc4c(c(Nc5ccnc(C(F)F)c5)n3)CCCC4)c3ccccc32)c(F)c1 [Example 2-19-19, N-[2-(difluoromethyl)pyridin-4-yl]-2-[1-(4-ethoxy-2,6-difluorobenzyl)-1H-indazol-3-yl]-5,6,7,8-tetrahydroquinazolin-4-amine] | > 10000 | 690 | 7.3 | 19 | –
CCOc1cc(F)c(Cn2nc(-c3nc4c(c(Nc5ccncc5C)n3)CCCC4)c3ccccc32)c(F)c1 [Example 2-19-20, 2-[1-(4-ethoxy-2,6-difluorobenzyl)-1H-indazol-3-yl]-N-(3-methylpyridin-4-yl)-5,6,7,8-tetrahydroquinazolin-4-amine] | 5200 | 120 | 49 | 7 | –

Further lines, results first:

IC50 (HeLa) [nM] | IC50 [1] [nM] | IC50 (Bub1) [nM] | IC50 [2, 3] [nM] | IC50 [2, 4] [nM] | Compound
3000 | 200 | 18 | – | 18 | CCOc1cc(F)c(Cn2nc(-c3ncc(CCNCC(F)(F)F)c(Nc4ccncc4)n3)c3ccccc32)c(F)c1 [Example 2-16-1, 2-[1-(4-ethoxy-2,6-difluorobenzyl)-1H-indazol-3-yl]-N-(pyridin-4-yl)-5-{2-[(2,2,2-trifluoroethyl)amino]ethyl}pyrimidin-4-amine]
1100 | 170 | 12 | – | 6.1 | CCOc1cc(F)c(Cn2nc(-c3ncc(C4CCNCC4)c(Nc4ccncc4)n3)c3ccccc32)c(F)c1 [Example 2-17-1, 2-[1-(4-ethoxy-2,6-difluorobenzyl)-1H-indazol-3-yl]-5-(piperidin-4-yl)-N-(pyridin-4-yl)pyrimidin-4-amine]
3100 | 190 | 4.8 | – | 8.6 | CCOc1cc(F)c(Cn2nc(-c3ncc(C4CCNCC4)c(Nc4ccnc(NC(C)=O)c4)n3)c3ccccc32)c(F)c1 [Example 2-17-2, N-[4-({2-[1-(4-ethoxy-2,6-difluorobenzyl)-1H-indazol-3-yl]-5-(piperidin-4-yl)pyrimidin-4-yl}amino)pyridin-2-yl]acetamide]
1700 | 160 | 20 | – | 6.1 | CCOc1cc(F)c(Cn2nc(-c3nc4c(c(Nc5ccncc5)n3)CCNC4)c3ccccc32)c(F)c1 [Example 2-18-1, 2-[1-(4-ethoxy-2,6-difluorobenzyl)-1H-indazol-3-yl]-N-(pyridin-4-yl)-5,6,7,8-tetrahydropyrido[3,4-d]pyrimidin-4-amine]
2100 | 610 | 340 | – | 8.9 | CCOc1cc(F)c(Cn2nc(-c3nc4c(c(Nc5ccnc(NC(C)=O)c5)n3)CSC4)c3ccccc32)c(F)c1 [Example 2-19-3, N-[4-({2-[1-(4-ethoxy-2,6-difluorobenzyl)-1H-indazol-3-yl]-5,7-dihydrothieno[3,4-d]pyrimidin-4-yl}amino)pyridin-2-yl]acetamide]
1200 | 130 | 45 | 68 | – | CCOc1cc(F)c(Cn2nc(-c3nc4c(c(Nc5ccnc(C)c5)n3)CSC4)c3ccccc32)c(F)c1 [Example 2-19-4, 2-[1-(4-ethoxy-2,6-difluorobenzyl)-1H-indazol-3-yl]-N-(2-methylpyridin-4-yl)-5,7-dihydrothieno[3,4-d]pyrimidin-4-amine]
> 10000 | 440 | 2500 | 8.1 | – | CCOc1cc(F)c(Cn2nc(-c3nc4c(c(Nc5ccnc(C(F)F)c5)n3)CCC4)c3ccccc32)c(F)c1 [Example 2-19-8, N-[2-(difluoromethyl)pyridin-4-yl]-2-[1-(4-ethoxy-2,6-difluorobenzyl)-1H-indazol-3-yl]-6,7-dihydro-5H-cyclopenta[d]pyrimidin-4-amine]
> 10000 | 130 | 110 | – | 17 | CCOc1cc(F)c(Cn2nc(-c3ncc(C4CCN(CC(F)(F)F)CC4)c(Nc4ccnc(NC(C)=O)c4)n3)c3ccccc32)c(F)c1 [Example 2-20-1, N-[4-({2-[1-(4-ethoxy-2,6-difluorobenzyl)-1H-indazol-3-yl]-5-[1-(2,2,2-trifluoroethyl)piperidin-4-yl]pyrimidin-4-yl}amino)pyridin-2-yl]acetamide]
> 10000 | 260 | 9.1 | – | 51 | CCOc1cc(F)c(Cn2nc(-c3ncc(C4CCN(CC(F)(F)F)CC4)c(Nc4ccnc(C)n4)n3)c3ccccc32)c(F)c1 [Example 2-20-2, 2-[1-(4-ethoxy-2,6-difluorobenzyl)-1H-indazol-3-yl]-N-(2-methylpyrimidin-4-yl)-5-[1-(2,2,2-trifluoroethyl)piperidin-4-yl]pyrimidin-4-amine]
> 10000 | 980 | 2.2 | – | 26 | CCOc1cc(F)c(Cn2nc(-c3ncc(C4CCN(CC(F)(F)F)CC4)c(Nc4ccncn4)n3)c3ccccc32)c(F)c1 [Example 2-20-3, 2-[1-(4-ethoxy-2,6-difluorobenzyl)-1H-indazol-3-yl]-N-(pyrimidin-4-yl)-5-[1-(2,2,2-trifluoroethyl)piperidin-4-yl]pyrimidin-4-amine]
1100 | 66 | 31 | – | 70 | CCOc1cc(F)c(Cn2nc(-c3ncc(C4CCN(CC(F)(F)F)CC4)c(Nc4ccncc4OC)n3)c3ccccc32)c(F)c1 [Example 2-20-4, 2-[1-(4-ethoxy-2,6-difluorobenzyl)-1H-indazol-3-yl]-N-(3-methoxypyridin-4-yl)-5-[1-(2,2,2-trifluoroethyl)piperidin-4-yl]pyrimidin-4-amine]

Source: patent publication US20170275270A1, “BENZYL SUBSTITUTED INDAZOLES” (Bayer Pharma Aktiengesellschaft, priority 2014, published 2017)
